Results taken from BindingDB's records for patent US20240109865 (Tyra Biosciences, 2024).

Legend:
Test in all cases: Kinase Assay
[1] = biological target: Fibroblast growth factor receptor 4 (Homo sapiens, UniProt P22455)
Procedure: (§1) Kinase-tagged T7 phage strains were prepared in an E. coli host derived from the BL21 strain. E. coli were grown to log-phase and infected with T7 phage and incubated with shaking at 32° C. until lysis. The lysates were centrifuged and filtered to remove cell debris. […] The liganded beads were blocked with excess biotin and washed with blocking buffer SeaBlock (Pierce), […], 1 mM DTT to remove unbound ligand and to reduce non-specific binding. […] Kds were determined using an 11-point 3-fold compound dilution series with three DMSO control points. […] The compounds were then diluted directly into the assays such that the final concentration of DMSO was 0.9%. All reactions performed in polypropylene 384-well plate. Each was a final volume of 0.02 ml.

[2] = biological target: Fibroblast growth factor receptor 1 (Homo sapiens, UniProt P11362)
Procedure: as §1

[3] = biological target: Fibroblast growth factor receptor 2 (Homo sapiens, UniProt P21802)
Procedure: as §1

Sequence of Fibroblast growth factor receptor 1 (P11362 whole entry): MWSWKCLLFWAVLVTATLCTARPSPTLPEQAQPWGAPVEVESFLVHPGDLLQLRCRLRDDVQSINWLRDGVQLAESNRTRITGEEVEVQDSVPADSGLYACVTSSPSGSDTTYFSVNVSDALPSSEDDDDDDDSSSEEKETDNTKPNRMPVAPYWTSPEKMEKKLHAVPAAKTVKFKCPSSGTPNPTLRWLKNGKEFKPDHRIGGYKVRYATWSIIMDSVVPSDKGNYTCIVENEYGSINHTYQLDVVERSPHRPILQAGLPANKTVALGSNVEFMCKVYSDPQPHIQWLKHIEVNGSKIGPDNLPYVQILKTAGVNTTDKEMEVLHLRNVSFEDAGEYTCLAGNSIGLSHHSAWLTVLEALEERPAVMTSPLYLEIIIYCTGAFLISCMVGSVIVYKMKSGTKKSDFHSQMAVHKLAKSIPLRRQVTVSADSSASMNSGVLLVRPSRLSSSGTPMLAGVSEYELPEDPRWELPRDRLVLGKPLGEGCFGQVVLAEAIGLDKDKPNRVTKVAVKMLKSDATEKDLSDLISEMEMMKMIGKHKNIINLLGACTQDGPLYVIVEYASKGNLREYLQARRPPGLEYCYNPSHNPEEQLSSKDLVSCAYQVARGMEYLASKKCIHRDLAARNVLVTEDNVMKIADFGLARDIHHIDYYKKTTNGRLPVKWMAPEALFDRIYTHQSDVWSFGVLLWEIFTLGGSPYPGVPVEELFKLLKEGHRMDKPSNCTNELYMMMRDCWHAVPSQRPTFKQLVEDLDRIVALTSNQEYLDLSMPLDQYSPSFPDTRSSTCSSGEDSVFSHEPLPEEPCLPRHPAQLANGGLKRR
Sequence of Fibroblast growth factor receptor 4 (P22455 whole entry): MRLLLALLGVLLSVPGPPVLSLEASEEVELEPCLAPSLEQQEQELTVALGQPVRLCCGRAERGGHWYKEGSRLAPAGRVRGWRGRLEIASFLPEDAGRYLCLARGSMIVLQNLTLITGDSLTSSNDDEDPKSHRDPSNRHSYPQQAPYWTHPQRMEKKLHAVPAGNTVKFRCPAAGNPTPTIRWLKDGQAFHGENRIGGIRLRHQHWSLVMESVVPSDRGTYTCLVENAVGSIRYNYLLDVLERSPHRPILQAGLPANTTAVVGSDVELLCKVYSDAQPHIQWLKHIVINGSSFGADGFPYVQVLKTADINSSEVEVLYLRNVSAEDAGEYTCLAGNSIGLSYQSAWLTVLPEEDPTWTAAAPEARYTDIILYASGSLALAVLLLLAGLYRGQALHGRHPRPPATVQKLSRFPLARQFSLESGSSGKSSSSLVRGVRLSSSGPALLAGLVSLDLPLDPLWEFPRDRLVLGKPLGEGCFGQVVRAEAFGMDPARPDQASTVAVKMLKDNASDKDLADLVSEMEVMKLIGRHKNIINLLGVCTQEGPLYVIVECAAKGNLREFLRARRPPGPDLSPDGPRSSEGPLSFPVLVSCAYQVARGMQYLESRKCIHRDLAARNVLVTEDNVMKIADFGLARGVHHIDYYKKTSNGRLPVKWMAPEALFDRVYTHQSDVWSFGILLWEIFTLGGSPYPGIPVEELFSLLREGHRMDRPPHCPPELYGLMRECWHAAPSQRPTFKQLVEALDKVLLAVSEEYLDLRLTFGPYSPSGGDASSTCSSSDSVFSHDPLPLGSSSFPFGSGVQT
Sequence of Fibroblast growth factor receptor 2 (P21802 whole entry): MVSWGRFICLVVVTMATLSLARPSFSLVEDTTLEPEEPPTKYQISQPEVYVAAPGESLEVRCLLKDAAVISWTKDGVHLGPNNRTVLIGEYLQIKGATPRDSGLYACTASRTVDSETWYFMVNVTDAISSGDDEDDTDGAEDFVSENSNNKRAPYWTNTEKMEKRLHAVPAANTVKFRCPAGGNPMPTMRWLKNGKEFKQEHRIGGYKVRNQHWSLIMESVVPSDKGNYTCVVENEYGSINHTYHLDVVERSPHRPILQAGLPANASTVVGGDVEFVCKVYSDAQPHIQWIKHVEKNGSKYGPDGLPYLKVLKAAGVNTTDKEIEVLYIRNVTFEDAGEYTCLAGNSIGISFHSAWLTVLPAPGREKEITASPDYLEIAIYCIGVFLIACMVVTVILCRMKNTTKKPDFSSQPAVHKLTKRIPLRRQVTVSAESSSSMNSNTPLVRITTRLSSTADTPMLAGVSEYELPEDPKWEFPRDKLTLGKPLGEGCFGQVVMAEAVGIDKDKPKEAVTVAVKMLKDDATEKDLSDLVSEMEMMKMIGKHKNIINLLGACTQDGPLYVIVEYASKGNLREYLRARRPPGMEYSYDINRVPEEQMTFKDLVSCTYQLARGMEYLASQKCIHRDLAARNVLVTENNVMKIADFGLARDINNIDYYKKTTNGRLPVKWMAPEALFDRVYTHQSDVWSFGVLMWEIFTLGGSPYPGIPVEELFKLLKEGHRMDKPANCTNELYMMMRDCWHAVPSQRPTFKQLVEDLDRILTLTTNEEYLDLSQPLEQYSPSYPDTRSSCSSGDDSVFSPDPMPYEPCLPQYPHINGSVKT

SMILES | Kd [1] [µM] | Kd [2] [µM] | Kd [3] [µM]
C[C@@H](Oc1ccc2[nH]nc(-c3ccc(N4CC5(CCOC5)C4)nc3)c2c1)c1c(Cl)cnnc1Cl [US20240109865, Example 223.] | > 0.3 | > 0.3 | –
Cc1cnnc(C)c1[C@@H](C)Oc1ccc2[nH]nc(-c3cnc(N4CCCC4)c(C#N)c3)c2c1 [US20240109865, Example 173.] | – | – | > 0.3
